Values of other authors, collected in publication PMC10329973 (Clinical pharmacology in drug development, 2023).

Assays:
depressed individuals = conditions: study in depressed individuals; cited from earlier work
blood pressure = conditions: cited from earlier work

SMILES: C[C@@H]([C@@H](O)c1ccc(O)cc1)N1CCC(O)(c2ccccc2)CC1 [CP-101,606, traxoprodil]
- dissociative effects (depressed individuals): ketamine-like dissociative effects were noted

SMILES: Cc1ccc(COC(=O)N2CC[C@H](CNc3ncccn3)[C@H](F)C2)cc1 [MK-0657]
- off-target cardiovascular effects (blood pressure): increased blood pressure
